Target: Protein kinase C alpha type (Homo sapiens, UniProt P17252)
Assay: Displacement of [3H-20]-phorbol 12,13-dibutyrate(PDBU) from recombinant Protein kinase C alpha

Ki | Compound
350 nM | CCCCCCCCCCCCCC(=O)OCC1(CO)C/C(=C/C(=O)OC)CO1 (stereo not drawn)
350 nM | CCCCCCCCCCCCCC(=O)OCC1(CO)C/C(=C\C(=O)OC)CO1 (stereo not drawn)
10800 nM | CCCCCCCCCCCCCC(=O)OC[C@]1(CO)CC[C@@H](CC(=O)OC)O1

More lines, now with the values behind:

Compound | Ki
CCCCCCCCCCCCCC(=O)OC[C@]1(CO)CC[C@H](CC(=O)OC)O1 | 2720 nM
CCCCCCCC/C=C\CCCCCCCCOC(=O)/C=C1/COC(CO)(COC(C)=O)C1 (stereo not drawn) | 1860 nM
CCCCCCCCCCCCCCOC(=O)C[C@@H]1CC[C@@](CO)(COC(=O)CCCCC)O1 | 12800 nM
CCCCCCCC/C=C\CCCCCCCCOC(=O)/C=C1\COC(CO)(COC(C)=O)C1 (stereo not drawn) | 850 nM
CCCCCCCCCCCCCCOC(=O)C[C@H]1CC[C@@](CO)(COC(=O)CCCCC)O1 | 2380 nM

From ChEMBL document CHEMBL1132430, “Protein kinase C ligands based on tetrahydrofuran templates containing a new set of phorbol ester pharmacophores” (J Med Chem, 1999)
